Legend:
Sphaerotheca fuliginea = test: Protective activity against mildew of cucumber, spray on potted cucumber seedlings; format: in vivo; settings: cucumber cv. chinese snake, 7 days
Method: (§1) The active compounds, separately or together, were formulated as a 10% emulsion in a mixture of 85% by weight of cyclohexanone and 5% by weight of emulsifier, and diluted with water to the desired concentration.
(§2) Evaluation was carried out by determining the infected leaf areas in percent. These percentages were converted into efficacies. The efficacy (W) was calculated as follows using Abbot's formula:
(§3) [formula] • α corresponds to the fungal infection of the treated plants in % and • β corresponds to the fungal infection of the untreated (control) plants in %.
(§4) An efficacy of 0 means that the infection level of the treated plants corresponds to that of the untreated control plants; an efficacy of 100 means that the treated plants were not infected.
(§5) The expected efficacies of the mixtures of the active compounds were determined using Colby's formula [R. S. Colby, Weeds 15, 20-22 (1967)] and compared with the observed efficacies. Colby formula: E=x+y−xy/100 • E expected efficacy, expressed in % of the untreated control, when using the mixture of the active compounds A and B at the concentrations a and b • x efficacy, expressed in % of the untreated control, when using active compound A at a concentration of a • y efficacy, expressed in % of the untreated control, when using active compound B at a concentration of b.
Use example 2: Protective activity against mildew of cucumber caused by Sphaerotheca fuliginea
Leaves of cucumber seedlings of the cultivar “chinese snake”, grown in pots, were, at the cotyledon stage, sprayed to runoff point with an aqueous preparation of active compound which had been prepared from a stock solution comprising 10% of active compound, 85% of cyclohexanone and 5% of emulsifier. 20 hours after the spray coating had dried on, the plants were inoculated with an aqueous spore suspension of mildew of cucumber (Sphaerotheca fuliginea). The plants were then cultivated in a greenhouse at 20-24° C. and 60-80% relative atmospheric humidity for 7 days. The extent of the mildew development was then determined visually in % infection of the cotyledon area. The visually determined values for the percentage of diseased leaf areas were converted into efficacies in % of the untreated control. An efficacy of 0 means the same disease level as in the untreated control, an efficacy of 100 means a disease level of 0%. The expected efficacies for the combinations of active compounds were determined using Colby's formula, mentioned above, and compared with the observed efficacies.

[1] = test system: Erysiphe [syn. Blumeria] graminis form a specialis. tritici; test: Activity against mildew of wheat, protective spray on potted wheat seedlings; format: in vivo; settings: wheat cv. Kanzler, 7 days
Method: as §1, §2, §3, §4, §5
Use example 1: Activity against mildew of wheat caused by Erysiphe [syn. Blumeria] graminis form a specialis. tritici
Leaves of wheat seedlings of the cultivar “Kanzler”, grown in pots, were sprayed to runoff point with an aqueous preparation of active compound which had been prepared from a stock solution comprising 10% of active compound, 85% of cyclohexanone and 5% of emulsifier, and 24 hours after the spray coating had dried on, the leaves were dusted with spores of mildew of wheat (Erysiphe [syn. Blumeria] graminis form a specialis. tritici). The test plants were then placed in a greenhouse at 20-24° C. and 60-90% relative atmospheric humidity. After 7 days, the extent of the mildew development was determined visually in % infection of the entire leaf area.
The visually determined values for the percentage of diseased leaf areas were converted into efficacies in % of the untreated control. An efficacy of 0 means the same disease level as in the untreated control, an efficacy of 100 means a disease level of 0%. The expected efficacies for the combinations of active compounds were determined using Colby's formula, mentioned above, and compared with the observed efficacies.

Structure (SMILES)	Efficacy in % of the untreated control (Sphaerotheca fuliginea; 0.015 ppm in the spray liquor)	Efficacy in % of the untreated control (Sphaerotheca fuliginea; 0.06 ppm in the spray liquor)	Efficacy in % of the untreated control ([1]; 0.015 ppm in the spray liquor)	Efficacy in % of the untreated control ([1]; 0.06 ppm in the spray liquor)	Efficacy in % of the untreated control ([1]; 1 ppm in the spray liquor)	Efficacy in % of the untreated control ([1]; 4 ppm in the spray liquor)	Efficacy in % of the untreated control (Sphaerotheca fuliginea; 0.25 ppm in the spray liquor)	Efficacy in % of the untreated control (Sphaerotheca fuliginea; 1 ppm in the spray liquor)	Efficacy in % of the untreated control ([1]; 0.25 ppm in the spray liquor)	Efficacy in % of the untreated control (Sphaerotheca fuliginea; 4 ppm in the spray liquor)
COc1cc(C)c(C(=O)c2c(OC)ccc(Br)c2C)c(OC)c1OC [Compound IV, metrafenone]	0%	0%	30%	53%	–	–	–	–	–	–
N#Cc1sc2c(=O)c3ccccc3c(=O)c=2sc1C#N [Compound VIII, dithianon]	–	–	–	–	0%	0%	–	–	–	–
OC(Cc1ccccc1Cl)(Cn1nc[nH]c1=S)C1(Cl)CC1 (stereo not shown) [Compound I, 2-[2-(1-chlorocyclopropyl)-3-(2-chlorophenyl)-2-hydroxypropyl]-2,4-dihydro-[1,2,4]-triazole-3-thione]	–	–	–	–	0%	42%	56%	78%	0%	–
Cc1ccc(-c2c(Cl)nc(C#N)n2S(=O)(=O)N(C)C)cc1 [Compound XI, cyazofamid]	–	–	–	0%	22%	–	–	–	22%	–
O=C(Nc1ccccc1-c1ccc(Cl)cc1)c1cccnc1Cl [Compound II, boscalid]	–	0%	–	0%	0%	0%	0%	–	0%	78%
O=C(Cc1ccccc1)N/C(=N\OCC1CC1)c1c(OC(F)F)ccc(F)c1F [Compound VI]	0%	33%	–	0%	–	–	–	–	53%	–

— patent US8188001B2, “Fungicidal mixtures” (BASF Aktiengesellschaft, priority 2002, dated 2012)
